What follows are molecules tested against T1, Rv0888 (Mycobacterium tuberculosis, UniProt P9WKQ1) (assay: DNase inhibition, circular plasmid DNA, agarose gel and A260 spectrophotometry). Settings: pH 6.5, 5 mM CaCl2, 5 mM MnCl2, 41 °C, 1 h.
T1 construct: gene spmT
Assay type: biochemical

T1 sequence (P9WKQ1 32-490 limits assumed): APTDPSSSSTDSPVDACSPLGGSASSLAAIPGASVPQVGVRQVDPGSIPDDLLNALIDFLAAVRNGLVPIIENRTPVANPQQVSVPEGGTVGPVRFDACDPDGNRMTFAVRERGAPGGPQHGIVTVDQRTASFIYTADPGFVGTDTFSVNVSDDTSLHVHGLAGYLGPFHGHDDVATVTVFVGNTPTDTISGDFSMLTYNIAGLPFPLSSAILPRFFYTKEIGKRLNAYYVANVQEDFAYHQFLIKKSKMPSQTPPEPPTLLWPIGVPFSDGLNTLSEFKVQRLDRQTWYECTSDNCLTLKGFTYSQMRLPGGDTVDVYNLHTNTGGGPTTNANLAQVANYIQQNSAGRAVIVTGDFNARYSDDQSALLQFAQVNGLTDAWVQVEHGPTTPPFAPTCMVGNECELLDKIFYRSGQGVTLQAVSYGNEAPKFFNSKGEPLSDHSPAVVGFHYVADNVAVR

Structure (SMILES)	relative DNase activity at 0.5, 1, 2 mM
C[C@@H]1O[C@@H](O[C@@H]2[C@@H](O)[C@H](OCCc3ccc(O)c(O)c3)O[C@H](CO)[C@H]2OC(=O)/C=C/c2ccc(O)c(O)c2)[C@H](O)[C@H](O)[C@H]1O [Acteoside]	inhibited by four Chinese medicine monomers (Oleuropein, 6-Gingerol, Corylifolinin and Acteoside)
CC(C)=CCc1c(O)ccc(C(=O)/C=C/c2ccc(O)cc2)c1O [Corylifolinin]	inhibited by four Chinese medicine monomers (Oleuropein, 6-Gingerol, Corylifolinin and Acteoside)
C/C=C1/[C@H](O[C@@H]2O[C@H](CO)[C@@H](O)[C@H](O)[C@H]2O)OC=C(C(=O)OC)[C@H]1CC(=O)OCCc1ccc(O)c(O)c1 [Oleuropein]	inhibited by four Chinese medicine monomers (Oleuropein, 6-Gingerol, Corylifolinin and Acteoside)
CCCCC[C@H](O)CC(=O)CCc1ccc(O)c(OC)c1 [6-Gingerol]	inhibited by four Chinese medicine monomers (Oleuropein, 6-Gingerol, Corylifolinin and Acteoside)
